The source of these data is patent publication US20260083769A1, “2-Aminopropane-1,3-Diol-Capped Cationic Peptoids for Nucleic Acid Delivery” (NUTCRACKER THERAPEUTICS, INC., priority 2022, published 2026).

Where two headings read alike, the source gives them in different places. Where a SMILES comes first, the peptide text is derived from it. [ ]: non-standard residue; d: D form. N(2-ethylhexyl)Gly = CCCCC(CC)CNCC(=O)O; Gly(N-dodecyl) = CCCCCCCCCCCCNCC(=O)O; N(CH(CH2OH)2)Gly = O=C(O)CNC(CO)CO; N(octyl)Gly = CCCCCCCCNCC(=O)O; NDecylGly = CCCCCCCCCCNCC(=O)O

One data set concerns BALB/c mice. The experiment in a line: In vivo fLuc mRNA expression after IV dose, whole body and organ bioluminescence. The conditions noted are these: BALB/c mice, IV, luminescence 6 hours after dose, lipid block screen. From the text: In one particular instance, peptoids disclosed herein were formulated into delivery vehicles by first dissolving in ethanol along with DSPC, cholesterol, and DMG-PEG2000 at weight ratio of 20:1.8:7.2:1.8 (Formulation D22 in Table 3, above), then mixed with firefly luciferase (fLuc) mRNA dissolved in an aqueous buffer at a volume ratio of 1:3 via microfluidic nanoprecipitation on a turbulent mixing device, resulting in small, low dispersity particles. Physical particle properties were characterized. Delivery vehicles with initial sizes larger than 120 nm were not brought forward into in vivo screening as liver fenestrae primarily accommodate LNPs sized under 100 nm. In vivo expression of delivery vehicles comprising peptoids with varied headgroups was evaluated using fLuc expression in BALB/c mice 6 hours after IV dose (FIG. 1). […] The aminoethyl and aminopropyl headgroups both show preferential expression in lung (FIG. 2), potentially due to the high basicity of the pendant primary amine, as groups with higher pKas are known to accumulate in that organ. […] While spleen and lung selectivity merit further optimization for future therapeutic applications, liver-selective targets were used for further studies herein to prepare for systemic delivery of antibody targets and maximize their serum expression with anti-RSV cargo.
Intravenous administration. The delivery vehicle complexes disclosed herein are effective for in vivo administration of Fluc mRNA to BALB/c mice through multiple routes of administration. In general, delivery system complexes were administered at a dose of 0.5 mg/kg via a tail-vein injection, and the resulting bioluminescence was quantified after 6 hours. Organ-specific bioluminescence was quantified by sacrificing the treated animal, dissecting out the organs of interest, and separately quantifying the resulting bioluminescence
In one particular instance, to investigate how the peptoid lipid block impacts in vivo expression, delivery vehicles with diameter larger than 120 nm were excluded and remaining candidates were administered IV to BALB/c mice. Luminescence was measured after 6 hours and the resulting expression in liver, lung and spleen were quantified. Even without changing the cationic headgroup, luciferase expression spanned 4 orders of magnitude as a result of altering the lipid block in this series. […] In vivo expression of all candidates was then fit to a multi-parameter model containing the 4 input parameters to understand the individual contributions of each factor to overall performance. […] Contour plots of the impact of these factors on expression (all using Ehx as the branched/unsaturated monomer) are shown in FIG. 4.
For imaging studies, female BALB/c mice (6-8 weeks old) were obtained and acclimatized for a minimum of 3 days prior to experiments. The animals were maintained on a 12 hour light cycle in a temperature and humidity controlled room. A daily health check was performed as well as food and water check. For dosing, mice were injected with 2.5 μg fLuc mRNA-containing delivery vehicles intravenously in 100 μL total injection volume. At 6 hours post-injection, mice were anesthetized with isoflurane, and injected intraperitoneally with 30 mg/mL D-luciferin at a dose of 10 μL per gram bodyweight intraperitoneally. Imaging was done 10 minutes post D-luciferin injection using an IVIS® Spectrum Imaging System. Immediately after in vivo imaging, mice were terminally bled by cardiac puncture and euthanized. The organs of interest were harvested, placed in black 24-well plates, and imaged. Living Image® software was used to quantify the total photon flux in regions of interest. For secreted protein studies, mice were injected with aRSV mRNA-containing delivery vehicles intravenously in 100 μL total injection volume. Mice were euthanized after 24 hours, with serum collection at 6 and 24 hours post-injection. […]

Data set [1] can be described thus: RBC hemolysis as metric for fusogenicity. In kind it is cell-based. To be noted: sheep red blood cells (RBCs), 5% v/v, Table 5, delivery vehicle, 37° C. 45 min. The method, boiled down:
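Sheep RBCs at 5% v/v in 20 mM citrate/140 mM NaCl pH 5.5 or PBS, exposed to LNPs at […] in well, 37 °C for 45 min. Supernatant absorbance at 425 nm; % hemolysis normalized to 2% Triton full lysis and buffer-only control.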

A short description of data set [2]: Zeta potential of delivery vehicles. It is filed as physicochemical. The conditions noted are these: Table 5; delivery vehicle, pH 7 buffer; in mV (unit assumed). As for the experimental part:
In one particular instance, the size and polydispersity (PDI) of delivery vehicles was measured by dynamic light scattering in PBS using a DynaPro® plate reader III. The zeta potential of delivery vehicles was determined using Nano-ZS™ particle analyzer. Zeta sample was diluted to 30 uM total lipid in a weakly buffered solution of 10 mM HEPES, 10 mM MES, 10 mM ammonium acetate pH 7. Measurements were collected in duplicate for over 30 run with the voltage manually set to […]

Data set [3] is described as follows: Apparent particle pKa, TNS fluorescence assay. In kind it is physicochemical. The conditions noted are these: Table 5; apparent particle pKa of delivery vehicle. The procedure: The apparent particle pKa was assessed by a TNS fluorescence assay. Briefly, particles were diluted to 130 uM total lipid in TNS buffer ranging in pH 3-11 for 10 minutes with […] of TNS probe. The fluorescence was measured at room temperature in a plate reader ex 320/em 445. Fluorescence intensity was normalized to the minimal and maximal values and the pKa was determined by a 3 parameter fit to determine the half maximum of the curve.

Data set [4] is described as follows: Particle size and polydispersity (PDI) of delivery vehicles by dynamic light scattering. It is filed as physicochemical. To be noted: Table 5; delivery vehicle comprising the peptoid, Formulation D22, fLuc mRNA. In short, it runs like this: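 Delivery vehicle complexes were diluted in PBS to 2 ng/μL and measured by DLS. The cumulant fit of the correlation function gave PDI and hydrodynamic diameter in nm.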

Data set [5] is described as follows: Percent encapsulated mRNA, RiboGreen assay. In kind it is physicochemical. The conditions noted are these: Table 5; delivery vehicle comprising the peptoid, Formulation D22, fLuc mRNA. In short, it runs like this: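 Modified RiboGreen fluorescence assay on Fluc mRNA formulations diluted to 500 ng/ml in Tris-EDTA. Samples were read with and without Triton X-100 lysis (2% for 10 min in one protocol). Percent encapsulation was derived from the fluorescence ratio of intact versus lysed particles.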

The mark [6] stands for this setting: pH 5, read-out: Hemolysis at pH 5.
The mark [7] stands for this setting: pH 7, read-out: Hemolysis at pH 7.

For `CCCCCCCCCCCCN(CC(=O)N(CC(N)=O)CC(CC)CCCC)C(=O)CN(CCCCCCCC)C(=O)CN(CC(CC)CCCC)C(=O)CN(CCCCCCCCCCCC)C(=O)CN(CCCCCCCC)C(=O)CNC(CO)CO` (stereo not drawn) [Compound 35] (H-[N(CH(CH2OH)2)Gly][N(octyl)Gly][Gly(N-dodecyl)][N(2-ethylhexyl)Gly][N(octyl)Gly][Gly(N-dodecyl)][N(2-ethylhexyl)Gly]-NH2), the “fLuc (luciferase) expression in vivo” value with BALB/c mice is listed as “top expressers”. Also, the hemolysis at 45 min, 150 mM total lipid in data set [1] (setting [6]) is 4.5%. Also, the hemolysis at 45 min, 150 mM total lipid in data set [1] (setting [7]) was found to be 5.1%. The “Zeta Potential” value in data set [2] is −5.88. Also, the “pKa (TNS)” value in data set [3] was determined as 5.937. Also, in data set [4], the PDI is 0.082 and the “Particle Size (nm)” value was 90.7 nm. The “% Encapsulation” value in data set [5] was 76.1%.

`CCCCCCCCCCN(CC(=O)N(CC(N)=O)CC(CC)CCCC)C(=O)CN(CCCCCCCC)C(=O)CN(CC(CC)CCCC)C(=O)CN(CCCCCCCCCC)C(=O)CN(CCCCCCCC)C(=O)CNC(CO)CO` (stereo not drawn) [Compound 28] (H-[N(CH(CH2OH)2)Gly][N(octyl)Gly][NDecylGly][N(2-ethylhexyl)Gly][N(octyl)Gly][NDecylGly][N(2-ethylhexyl)Gly]-NH2): the figures for the hemolysis at 45 min, 150 mM total lipid in data set [1] (setting [6]) and in data set [1] (setting [7]) were 15.1% and 5.6%, respectively. Also, in data set [2], the “Zeta Potential” value is listed as −5.98. In addition, in data set [3], the “pKa (TNS)” value stood at 5.844. Also, the PDI in data set [4] came out at 0.089. The “Particle Size (nm)” value in data set [4] is recorded as 86.6 nm. For the same molecule, the “% Encapsulation” value in data set [5] amounted to 82.2%.
